Reference: patent US9284276B2, “N-ethyl-N-phenyl-1,2-dihydro-4,5-di-hydroxy-1-methyl-2-oxo-3-quinolinecarboxamide, preparation and uses thereof” (TEVA PHARMACEUTICAL INDUSTRIES, LTD., priority 2012, dated 2016)

Tests used:
[1] = Stability of 5-HLAQ in solvents; format: physicochemical; conditions: in most of the organic solvents as well as in aqueous acidic conditions
From the text: N-Ethyl-N-phenyl-1,2-dihydro-4,5-di-hydroxy-1-methyl-2-oxo-3-quinolinecarboxamide (5-HLAQ) is not stable in most of the organic solvents as well as in aqueous acidic conditions. Therefore common purification methods were extremely difficult. The di-acetate derivative Compound 3 is an elegant way to purify the material followed only by basic hydrolysis, acidic precipitation and rapid filtration.

[2] = in vivo; cited from earlier work
[3] = system: active MRI lesions in relapsing MS; conditions: Polman et al. 2005; cited from earlier work
[4] = system: acute experimental autoimmune encephalomyelitis (aEAE) model; conditions: U.S. Pat. No. 6,077,851; cited from earlier work
[5] = Formation of 5-HLAQ on light exposure of laquinimod, determined by HPLC; format: physicochemical
Method: Various forms of laquinimod were exposed to light, as specified below. Presence of 5-HLAQ was determined using HPLC.

[6] = Influence of blister pack material on photo-degradation of laquinimod 0.6 mg capsules; format: physicochemical
Method: The goal of this study is to examine the photo-degradation of laquinimod sodium capsules, 0.6 mg, packed in blisters of various materials.
One batch of laquinimod sodium capsules, 0.6 mg/capsule was packed into four different types of blisters: PVC/AC/PVDC/PVLE/P058 504 142 (transparent), PVC/PE-EVOH/AC (A 300) G03 140 MM (transparent), A-/PVC/PE-EVOH/AC-PC (opaque), and KPMAX WH (opaque). Control was the same batch not exposed to sunlight in HDPE 50 cc DUMA™ bottle.

## CCN(C(=O)c1c(O)c2c(O)cccc2n(C)c1=O)c1ccccc1 [Compound 5-HLAQ, N-Ethyl-N-phenyl-1,2-dihydro-4,5-di-hydroxy-1-methyl-2-oxo-3-quinolinecarboxamide]
[1]
  Stability in solvents: not stable

## CCN(C(=O)c1c(O)c2c(Cl)cccc2n(C)c1=O)c1ccccc1 [Laquinimod sodium]
[2]
  Oral bioavailability: high

## CCN(C(=O)c1c(O)c2c(Cl)cccc2n(C)c1=O)c1ccccc1 [Laquinimod, N-ethyl-N-phenyl-1,2-dihydro-4-hydroxy-5-chloro-1-methyl-2-oxoquinoline-3-carboxamide]
[3]
  Development of active MRI lesions: can reduce development of active MRI lesions
[4]
  Efficacy in aEAE model: effective
[5]; Light chamber 310-400 nm (~8 hrs.), 0.05 mg/ml in 0.02M HCl
  Presence of 5-HLAQ (wt %): 1.5 wt %
[5]; Light chamber 310-400 nm (~8 hrs.), 0.05 mg/ml in 0.02M NaOH
  Presence of 5-HLAQ (wt %): 71 wt %
[5]; Light chamber 310-400 nm (~8 hrs.), 1 mg/ml in 0.02M NaOH, relative to laquinimod before photodegradation
  Presence of 5-HLAQ (wt %): 33 wt %
[5]; Sunlight cabinet (5 minutes), 0.09 mg/ml aqueous solution
  Presence of 5-HLAQ (wt %): 11.8 wt %
[6]
  Sensitivity to light: sensitive to light
